pIC50: −log10 of the molar value.
Assays:
[1] = target: T1, PRC2-EZH2 (WT EZH2) (Homo sapiens, UniProt Q15910); experiment: EZH2 methyltransferase inhibitory activity evaluation; assay type: biochemical; settings: PRC2-EZH2, biotin-H3 peptide, 3H-SAM, 2 hours
T1 construct: made in house
Protocol: EZH2 Methyltransferase Inhibitory Activity Evaluation
(§1) Then, the residual radioactivity was measured using TopCount NXT HTS (PerkinElmer, Inc., model C384V01).

[2] = target: PRC2-EZH1 (WT EZH1) (Homo sapiens, UniProt Q92800); experiment: EZH1 methyltransferase inhibitory activity evaluation
Protocol: EZH1 Methyltransferase Inhibitory Activity Evaluation
as §1

[3] = tested on: Intracellular H3K27me3 in HCT116 cells; experiment: Intracellular H3K27me3 inhibitory activity evaluation; assay type: cell-based; settings: Homo sapiens, HCT-116, 72 h, 3 days, AlphaLISA, read-out: Test Example 3 H3K27me3 inhibition (HCT116) IC50
Protocol: The HCT116 cells were purchased from American Type Culture Collection (ATCC). […] Intracellular H3K27me3 was quantified using AlphaLISA H3K27me3 Cellular Detection Kit (PerkinElmer, Inc., #AL722F). The cells thus cultured in each well were washed with 100 μL of PBS. Cell-Histone Lysis buffer diluted 6-fold with PBS was added thereto at 80 μL/well, and the plate was then incubated at room temperature for 15 minutes while shaken. Then, Cell-Histone Extraction buffer was added thereto at 40 μL/well, and the plate was incubated at room temperature for 10 minutes while shaken. […] An AlphaLISA anti-H3K27me3 Acceptor beads/Biotinylated Antibody anti-Histone H3 (C-ter) mixed solution was added thereto at 3.3 μL/well, and the plate was incubated at room temperature for 60 minutes. Then, Streptavidin (SA)-coated Donor beads were added thereto at 3.3 μL/well, and the plate was incubated at room temperature for 30 minutes with the plate shielded from light.

T1 sequence (Q15910 whole entry): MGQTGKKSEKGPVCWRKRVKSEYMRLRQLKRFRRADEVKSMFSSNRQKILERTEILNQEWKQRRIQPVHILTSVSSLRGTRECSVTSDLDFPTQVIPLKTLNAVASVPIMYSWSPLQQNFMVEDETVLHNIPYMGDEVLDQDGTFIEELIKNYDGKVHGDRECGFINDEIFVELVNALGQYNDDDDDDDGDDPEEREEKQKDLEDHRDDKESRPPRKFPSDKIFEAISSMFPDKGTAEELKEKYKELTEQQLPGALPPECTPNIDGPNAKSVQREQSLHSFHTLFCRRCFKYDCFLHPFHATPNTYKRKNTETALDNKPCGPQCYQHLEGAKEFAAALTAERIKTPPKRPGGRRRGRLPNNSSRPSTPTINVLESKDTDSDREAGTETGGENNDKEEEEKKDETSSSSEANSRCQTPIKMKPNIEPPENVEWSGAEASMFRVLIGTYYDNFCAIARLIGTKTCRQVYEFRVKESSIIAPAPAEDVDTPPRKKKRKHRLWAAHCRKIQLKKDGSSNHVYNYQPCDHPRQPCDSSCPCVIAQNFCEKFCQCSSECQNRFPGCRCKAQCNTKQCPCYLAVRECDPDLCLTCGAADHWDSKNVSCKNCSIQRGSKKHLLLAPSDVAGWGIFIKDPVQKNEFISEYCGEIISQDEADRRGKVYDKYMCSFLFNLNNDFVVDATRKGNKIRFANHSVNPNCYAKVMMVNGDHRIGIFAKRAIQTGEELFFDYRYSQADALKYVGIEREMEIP
T1 sequence (O75530 whole entry partner): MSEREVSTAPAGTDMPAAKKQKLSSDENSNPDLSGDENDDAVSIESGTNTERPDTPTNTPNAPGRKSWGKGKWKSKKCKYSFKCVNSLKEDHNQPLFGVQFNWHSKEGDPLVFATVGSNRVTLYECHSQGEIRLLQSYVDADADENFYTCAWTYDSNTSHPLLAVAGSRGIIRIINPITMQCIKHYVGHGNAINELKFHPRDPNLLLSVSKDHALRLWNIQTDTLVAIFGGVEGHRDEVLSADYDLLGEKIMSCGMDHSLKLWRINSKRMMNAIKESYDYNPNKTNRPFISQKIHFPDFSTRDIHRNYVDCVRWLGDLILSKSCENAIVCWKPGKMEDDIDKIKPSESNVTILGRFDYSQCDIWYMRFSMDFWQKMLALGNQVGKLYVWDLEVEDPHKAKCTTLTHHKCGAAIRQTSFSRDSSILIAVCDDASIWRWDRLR
T1 sequence (Q15022 whole entry partner): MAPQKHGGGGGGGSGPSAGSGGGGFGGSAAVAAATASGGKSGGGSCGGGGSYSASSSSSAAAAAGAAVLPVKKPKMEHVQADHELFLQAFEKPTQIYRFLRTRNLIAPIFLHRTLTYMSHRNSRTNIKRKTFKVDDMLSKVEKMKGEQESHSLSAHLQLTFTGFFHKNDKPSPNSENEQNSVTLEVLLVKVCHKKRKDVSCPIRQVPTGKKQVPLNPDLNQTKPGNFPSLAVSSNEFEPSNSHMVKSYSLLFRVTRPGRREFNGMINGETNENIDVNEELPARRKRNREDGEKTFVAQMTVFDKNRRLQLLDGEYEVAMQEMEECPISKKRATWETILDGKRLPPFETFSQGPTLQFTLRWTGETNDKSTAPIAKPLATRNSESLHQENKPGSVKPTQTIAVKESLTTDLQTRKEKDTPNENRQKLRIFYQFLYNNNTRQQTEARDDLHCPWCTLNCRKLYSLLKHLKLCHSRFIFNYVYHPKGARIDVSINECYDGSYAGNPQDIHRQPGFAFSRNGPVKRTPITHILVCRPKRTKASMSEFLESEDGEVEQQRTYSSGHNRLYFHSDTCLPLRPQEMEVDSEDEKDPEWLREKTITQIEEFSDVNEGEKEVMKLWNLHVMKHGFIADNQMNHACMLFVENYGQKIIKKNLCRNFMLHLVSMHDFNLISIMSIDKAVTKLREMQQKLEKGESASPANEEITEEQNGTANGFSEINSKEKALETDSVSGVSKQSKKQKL
Chain of PRC2-EZH1 (WT EZH1) (Q92800 whole entry): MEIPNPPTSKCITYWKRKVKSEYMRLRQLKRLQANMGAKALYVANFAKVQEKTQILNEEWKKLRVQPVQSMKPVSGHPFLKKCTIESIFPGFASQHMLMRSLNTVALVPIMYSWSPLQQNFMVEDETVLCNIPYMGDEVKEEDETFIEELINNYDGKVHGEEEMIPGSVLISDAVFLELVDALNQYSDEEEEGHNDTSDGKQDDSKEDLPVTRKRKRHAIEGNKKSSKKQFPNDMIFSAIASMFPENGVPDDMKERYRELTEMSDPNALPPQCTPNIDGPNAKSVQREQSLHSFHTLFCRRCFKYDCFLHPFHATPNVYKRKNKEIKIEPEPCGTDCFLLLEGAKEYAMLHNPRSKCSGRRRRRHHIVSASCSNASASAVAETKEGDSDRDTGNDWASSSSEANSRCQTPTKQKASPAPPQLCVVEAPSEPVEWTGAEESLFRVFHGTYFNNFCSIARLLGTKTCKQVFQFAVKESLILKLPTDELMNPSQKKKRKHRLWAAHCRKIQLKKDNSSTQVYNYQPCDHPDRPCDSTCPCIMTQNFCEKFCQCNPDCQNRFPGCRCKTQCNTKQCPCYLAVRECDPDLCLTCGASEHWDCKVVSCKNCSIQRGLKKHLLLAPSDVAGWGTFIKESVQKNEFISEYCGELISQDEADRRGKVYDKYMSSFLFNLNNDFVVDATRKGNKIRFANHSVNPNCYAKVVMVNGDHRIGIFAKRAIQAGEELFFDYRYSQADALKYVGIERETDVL
Chain of PRC2-EZH1 (WT EZH1) (O75530 whole entry partner): as the sequence (O75530 whole entry partner) above
Chain of PRC2-EZH1 (WT EZH1) (Q15022 whole entry partner): as the sequence (Q15022 whole entry partner) above
Chain of PRC2-EZH1 (WT EZH1) (Q09028 whole entry partner): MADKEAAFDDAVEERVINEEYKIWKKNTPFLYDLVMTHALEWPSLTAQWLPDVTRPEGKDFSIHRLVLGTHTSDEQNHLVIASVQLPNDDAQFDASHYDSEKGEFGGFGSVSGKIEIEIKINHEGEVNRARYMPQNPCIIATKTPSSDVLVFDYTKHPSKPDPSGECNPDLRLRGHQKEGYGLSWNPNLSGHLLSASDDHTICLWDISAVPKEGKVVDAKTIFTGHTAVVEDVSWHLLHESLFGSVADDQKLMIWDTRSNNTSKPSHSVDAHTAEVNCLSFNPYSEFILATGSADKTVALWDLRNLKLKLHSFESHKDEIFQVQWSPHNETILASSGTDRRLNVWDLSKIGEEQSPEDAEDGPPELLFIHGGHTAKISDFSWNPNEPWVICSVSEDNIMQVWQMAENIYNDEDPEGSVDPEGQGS
Chain of PRC2-EZH1 (WT EZH1) (Q6ZN18 whole entry partner): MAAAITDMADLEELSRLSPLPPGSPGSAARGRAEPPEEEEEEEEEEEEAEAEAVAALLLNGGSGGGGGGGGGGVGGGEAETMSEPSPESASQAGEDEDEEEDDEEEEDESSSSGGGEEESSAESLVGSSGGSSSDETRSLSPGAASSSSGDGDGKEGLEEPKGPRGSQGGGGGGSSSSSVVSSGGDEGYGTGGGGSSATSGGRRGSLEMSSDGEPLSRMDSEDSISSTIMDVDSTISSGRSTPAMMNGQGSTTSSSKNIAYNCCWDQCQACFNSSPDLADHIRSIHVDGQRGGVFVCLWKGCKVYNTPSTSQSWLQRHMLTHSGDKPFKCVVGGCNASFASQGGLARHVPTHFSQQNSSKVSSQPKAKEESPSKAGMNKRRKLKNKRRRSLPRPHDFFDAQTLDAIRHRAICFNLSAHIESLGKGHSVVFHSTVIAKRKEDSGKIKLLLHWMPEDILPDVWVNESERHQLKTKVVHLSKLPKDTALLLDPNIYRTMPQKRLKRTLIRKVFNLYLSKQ

Q: `COc1cc(C(=O)NCc2c(C)cc(C)[nH]c2=O)c(C)c2c1OC(C)([C@H]1CC[C@H](N(C)C)CC1)O2` (relative stereo) [Example 50, 2-[trans-4-(Dimethylamino)cyclohexyl]-N-[(4,6-dimethyl-2-oxo-1,2-dihydropyridin-3-yl)methyl]-7-methoxy-2,4-dimethyl-1,3-benzodioxole-5-carboxamide] was tested. Which pIC50 [1] did it give?
A: 7.70

Q: What about the pIC50 [2] of the same molecule?
A: 7.28

Q: And the pIC50 [3]?
A: 8.15

Q: How did the pIC50 [1] turn out when `Cc1cc(C)c(CNC(=O)c2cc(Cl)c3c(c2Cl)OC(C)([C@H]2CC[C@H](N(C)C)CC2)O3)c(=O)[nH]1` (relative stereo) [Example 53, 4,7-Dichloro-2-[trans-4-(dimethylamino)cyclohexyl]-N-[(4,6-dimethyl-2-oxo-1,2-dihydropyridin-3-yl)methyl]-2-methyl-1,3-benzodioxole-5-carboxamide] was run?
A: 7.89

Q: What about the pIC50 [2] of the same molecule?
A: 7.59

Q: What about the pIC50 [3] of the same molecule?
A: 9.20

Q: Which results are given for `Cc1cc(C)c(CNC(=O)c2cc(C3=CCCC3)c3c(c2C)OC(C)([C@H]2CC[C@H](N(C)C)CC2)O3)c(=O)[nH]1` (relative stereo) [Example 58, 7-(Cyclopenten-1-yl)-2-[trans-4-(dimethylamino)cyclohexyl]-N-[(4,6-dimethyl-2-oxo-1,2-dihydropyridin-3-yl)methyl]-2,4-dimethyl-1,3-benzodioxole-5-carboxamide]?
A: pIC50 [1]: 8.00; pIC50 [2]: 8.36; pIC50 [3]: 8.54

Q: Which results are given for `Cc1cc(C)c(CNC(=O)c2cc(-c3ccccc3)c3c(c2C)OC(C)([C@H]2CC[C@H](N(C)C)CC2)O3)c(=O)[nH]1` (relative stereo) [Example 59, 2-[trans-4-(Dimethylamino)cyclohexyl]-N-[(4,6-dimethyl-2-oxo-1,2-dihydropyridin-3-yl)methyl]-2,4-dimethyl-7-phenyl-1,3-benzodioxole-5-carboxamide]?
A: pIC50 [1]: 8.06; pIC50 [2]: 8.24; pIC50 [3]: 8.74

Q: What does the source list for `Cc1cc(C)c(CNC(=O)c2cc(C3=CCCCC3)c3c(c2C)OC(C)([C@H]2CC[C@H](N(C)C)CC2)O3)c(=O)[nH]1` (relative stereo) [Example 60, 7-(Cyclohexen-1-yl)-2-[trans-4-(dimethylamino)cyclohexyl]-N-[(4,6-dimethyl-2-oxo-1,2-dihydropyridin-3-yl)methyl]-2,4-dimethyl-1,3-benzodioxole-5-carboxamide]?
A: pIC50 [1]: 7.85; pIC50 [2]: 8.14; pIC50 [3]: 8.43

Q: What does the source list for `CCN1CCN(c2ccc(-c3cc(C(=O)NCc4c(C)cc(C)[nH]c4=O)c(C)c4c3OC(C)([C@H]3CC[C@H](N(C)C)CC3)O4)cn2)CC1` (relative stereo) [Example 61, 2-[trans-4-(Dimethylamino)cyclohexyl]-N-[(4,6-dimethyl-2-oxo-1,2-dihydropyridin-3-yl)methyl]-7-[6-(4-ethylpiperazin-1-yl)-3-pyridyl]-2,4-dimethyl-1,3-benzodioxole-5-carboxamide]?
A: pIC50 [1]: 7.68; pIC50 [2]: 8.10; pIC50 [3]: 8.00

Q: `Cc1cc(C)c(CNC(=O)c2cc(C3=CCOCC3)c3c(c2C)OC(C)([C@H]2CC[C@H](N(C)C)CC2)O3)c(=O)[nH]1` (relative stereo) [Example 62, 7-(3,6-Dihydro-2H-pyran-4-yl)-2-[trans-4-(dimethylamino)cyclohexyl]-N-[(4,6-dimethyl-2-oxo-1,2-dihydropyridin-3-yl)methyl]-2,4-dimethyl-1,3-benzodioxole-5-carboxamide] was tested. Which pIC50 [1] did it give?
A: 8.18

Q: What about the pIC50 [2] of the same molecule?
A: 7.96

Q: And the pIC50 [3]?
A: 8.26

Q: With `Cc1cc(C)c(CNC(=O)c2cc(-c3ccc(CN4CCOCC4)nc3)c3c(c2C)OC(C)([C@H]2CC[C@H](N(C)C)CC2)O3)c(=O)[nH]1` (relative stereo) [Example 63, 2-[trans-4-(Dimethylamino)cyclohexyl]-N-[(4,6-dimethyl-2-oxo-1,2-dihydropyridin-3-yl)methyl]-2,4-dimethyl-7-[6-(morpholinomethyl)-3-pyridyl]-1,3-benzodioxole-5-carboxamide] as the molecule, how does the pIC50 [1] read?
A: 7.66

Q: And the pIC50 [2]?
A: 7.77

Q: What about the pIC50 [3] of the same molecule?
A: 7.89

From US10954219B2, “1,3-benzodioxole derivative” (DAIICHI SANKYO COMPANY, LIMITED, priority 2014, dated 2021)
